Experimental data from publication PMC9276577, “SIRT1 pharmacological activation rescues vascular dysfunction and prevents thrombosis in MTHFR deficiency” (Cellular and Molecular Life Sciences: CMLS, 2022).

Experiments:
SIRT1 [1] = molecular target: T1, SIRT1 (Homo sapiens, UniProt Q96EB6); assay: CETSA in MCF7 cells (Tm raised from […] °C to […] °C); format: cell-based; design: endogenous SIRT1 in MCF7 cells
T1 sequence (Q96EB6 2-747): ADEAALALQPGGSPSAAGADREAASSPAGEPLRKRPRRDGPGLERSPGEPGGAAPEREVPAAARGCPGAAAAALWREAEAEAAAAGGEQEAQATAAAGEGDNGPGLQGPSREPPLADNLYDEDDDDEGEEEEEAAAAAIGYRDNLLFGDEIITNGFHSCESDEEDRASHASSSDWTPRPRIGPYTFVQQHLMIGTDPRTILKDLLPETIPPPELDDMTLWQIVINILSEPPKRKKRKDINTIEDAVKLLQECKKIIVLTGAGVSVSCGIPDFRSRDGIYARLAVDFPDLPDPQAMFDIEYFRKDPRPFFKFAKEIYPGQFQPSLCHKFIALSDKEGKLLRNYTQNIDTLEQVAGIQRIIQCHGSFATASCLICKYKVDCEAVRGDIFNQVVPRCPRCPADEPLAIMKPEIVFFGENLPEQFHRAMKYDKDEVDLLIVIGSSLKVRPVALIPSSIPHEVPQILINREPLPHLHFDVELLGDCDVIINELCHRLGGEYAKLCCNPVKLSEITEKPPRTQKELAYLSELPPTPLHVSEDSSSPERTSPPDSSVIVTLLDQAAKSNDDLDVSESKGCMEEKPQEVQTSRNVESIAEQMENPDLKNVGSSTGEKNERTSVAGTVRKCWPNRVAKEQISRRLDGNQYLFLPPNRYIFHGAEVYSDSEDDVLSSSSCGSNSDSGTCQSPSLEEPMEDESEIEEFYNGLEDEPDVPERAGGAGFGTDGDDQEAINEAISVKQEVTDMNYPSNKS

SIRT1 [2] = molecular target: T1, SIRT1; assay: NMase-coupled fluorescence deacetylase assay (activation, AC50) on purified SIRT1; binding supported by tyrosine fluorescence quenching and CETSA in MCF7 cells; format: biochemical; design: SIRT1-GST purified from E. coli BL21 (full-length SIRT1 after thrombin cleavage for fluorescence quenching); settings: read-out: EC50 (the source's name)

| AC50 (SIRT1 [2]) [µM] | Compound | CETSA in MCF7 cells (Tm raised from 46.5 °C to 51.4 °C) (SIRT1 [1]) [°C] |
| --- | --- | --- |
| – | Oc1ccc(/C=C/c2cc(O)cc(O)c2)cc1 [RSV, resveratrol] | 51.4 |
| 20.11 ± 0.15 | ISIDE11 | – |
